Where a SMILES comes first, the peptide text is derived from it. [ ]: non-standard residue; d: D form. The star is where a group is joined. Piperazinyl(4-(2-MeOPh)) = COc1ccccc1N1CCN(*)CC1; Piperazinyl(4-Ph) = c1ccc(N2CCN(*)CC2)cc1; dGly(2-thienyl) = N[C@@H](C(=O)O)c1cccs1; d(tBuAla) = CC(C)(C)C[C@@H](N)C(=O)O
What was measured:
[1] = test system: porcine coronary vein ring preparations constricted with sarafotoxin S6c; test: Determination of porcine coronary vein relaxation activity; settings: peptide at 0.01 μM; vein constricted with S6c 1 nM for 45 min; relative to constriction of S6c (100%)
Method: Determination of porcine coronary vein relaxation activity
Ring preparations of porcine coronary vein (3 mm in a diameter) were placed in an organ bath filled with Krebs solution gassed with 95% O2 /5%CO2 at 37° C. and allowed to stand for 1.5 h at a resting load of 0.5 g tension for vein. The preparations were constricted with 60 mM KCl for 15 min and then washed and allowed to stand for 1.5 h at the resting load. The vein preparations constricted with sarafotoxin S6c (S6c) at 1 nM for 45 min were used to determine the effect of the peptide of Example 4 at 0.01 μM. Result is shown in the following Table as the relaxation rate relative to the constriction of S6c (100%).

[2] = target: T1, endothelin A (ETA) receptors (Sus scrofa, UniProt Q29010); test: Determination of ETA receptor binding activity ([125I]ET-1, swine ventricular muscle membrane fraction); settings: [125I]ET-1 binding, 25° C., 1 hour
T1 construct: A membrane fraction prepared from swine ventricular muscle; from tissue; host or cells: swine ventricular muscle membrane fraction
T1 sequence (Q29010 21-427): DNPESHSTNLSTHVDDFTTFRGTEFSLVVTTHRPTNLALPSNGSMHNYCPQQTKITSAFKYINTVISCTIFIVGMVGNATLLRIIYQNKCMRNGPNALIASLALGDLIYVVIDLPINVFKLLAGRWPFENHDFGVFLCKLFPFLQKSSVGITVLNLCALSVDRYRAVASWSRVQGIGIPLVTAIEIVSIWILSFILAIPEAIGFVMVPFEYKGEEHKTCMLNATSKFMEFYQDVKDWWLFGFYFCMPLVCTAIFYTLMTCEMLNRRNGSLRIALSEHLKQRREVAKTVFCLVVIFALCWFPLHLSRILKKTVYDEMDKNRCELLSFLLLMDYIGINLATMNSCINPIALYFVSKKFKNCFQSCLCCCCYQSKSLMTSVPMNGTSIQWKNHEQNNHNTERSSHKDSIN
Method: Determination of endothelin receptor binding activity (1) Determination of ETA receptor binding activity
A membrane fraction prepared from swine ventricular muscle was diluted to 12 μg/ml with an assaying buffer and dispensed to assaying tubes at 100 μl per tube. To this membrane fraction suspension were added 2 μl of a solution of endothelin-l labeled with 100 pmole of radioactive iodine ([^125 I]ET-1, produced by Amersham Medical Ltd.) and 3 μl of a solution of the subject compound at various concentrations, followed by incubation at 25° C. for 1 hour. The suspension was then diluted with an ice-cooled assaying buffer and filtered through a glass filter GF/F (produced by Whatman K.K.). The membrane fraction containing endothelin A (ETA) receptors and receptor-bound [^125 I)ET-1 were recovered on the filter. The radioactivity retained on the filter was measured to obtain the amount of [^125 I]ET-1 bound to the ETA receptors. The amount of [^125 I,]ET-1 bound in the presence of ET-1 in great excess as the test compound was taken as the amount of nonspecific binding. The amount of specific binding (SPB) of [^125 I]ET-1 was obtained by subtracting the amount of nonspecific binding from the total amount of binding determined. The percent SPB value at test compound concentration C (molar concentration by volume) was defined as the percent ratio of the amount of specific binding relative to the amount of specific binding obtained at a test compound concentration of 0. The thus-obtained value was substituted for the following "pseudo-Hill's equation" to calculate the test compound concentration (IC50 value) required to have a value of 50% for the amount of specific binding of [125I]ET-1.
(§1) log[%SPB/(100 - %SPB)]=n[logC - log(IC50)]
(§2) n: Pseudo-Hill's coefficient

[3] = target: T2, endothelin B (ETB) receptors (Bos taurus, UniProt P28088); test: Determination of ETB receptor binding activity ([125I]ET-1, bovine brain membrane fraction); settings: [125I]ET-1 binding, 25° C., 1 hour
T2 construct: A membrane fraction prepared from a bovine brain; from tissue; host or cells: bovine brain membrane fraction
T2 sequence (P28088 27-441): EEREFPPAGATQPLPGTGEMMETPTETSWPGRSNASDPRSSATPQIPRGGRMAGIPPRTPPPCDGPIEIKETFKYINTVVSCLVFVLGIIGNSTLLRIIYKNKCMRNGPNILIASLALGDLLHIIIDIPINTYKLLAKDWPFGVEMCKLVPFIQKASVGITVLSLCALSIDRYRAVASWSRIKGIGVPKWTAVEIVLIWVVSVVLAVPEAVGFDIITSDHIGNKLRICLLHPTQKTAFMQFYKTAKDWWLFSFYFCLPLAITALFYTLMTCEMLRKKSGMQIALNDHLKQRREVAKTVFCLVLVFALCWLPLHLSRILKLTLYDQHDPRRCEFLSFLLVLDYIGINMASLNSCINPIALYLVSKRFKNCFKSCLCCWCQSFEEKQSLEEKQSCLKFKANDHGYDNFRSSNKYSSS
Method: (2) Determination of ETB receptor binding activity
A membrane fraction prepared from a bovine brain was diluted to 150 μg/ml with an assaying buffer and dispensed to assaying tubes at 100 μl per tube. To this membrane fraction suspension were added 2 μl of a solution of endothelin-1 labeled with 100 pM of radioactive iodine ([^125 I]ET-1, produced by Amersham Medical Ltd.) and 3 μl of a solution of the subject compound at various concentrations, followed by incubation at 25° C. for 1 hour. The suspension was then diluted with an ice-cooled assaying buffer and filtered through a glass filter GF/F (produced by Whatman K.K.). The membrane fraction containing endothelin B (ETB) receptors and receptor-bound [^125 I)ET-1 were recovered on the filter. The radioactivity retained on the filter was measured to obtain the amount of (^125 I]ET-1 bound to the ETB receptors. The amount of (^125 I]ET-1 bound in the presence of ET-1 in great excess as the test compound was taken as the amount of nonspecific binding. The amount of specific binding (SPB) of [^125 I]ET-1 was obtained by subtracting the amount of nonspecific binding from the total amount of binding determined. The percent SPB value at test compound concentration C (molar concentration by volume) was defined as the percent ratio of the amount of specific binding relative to the amount of specific binding obtained at a test compound concentration of 0. The thus-obtained value was substituted for the following "pseudo-Hill's equation" to calculate the test compound concentration (IC50 value) required to have a value of 50% for the amount of specific binding of [^125 I]ET-1.
as §1, §2

Compound	relaxation rate (%) [1]	IC50 [2]	IC50 [3]
cyclo[--D--Asp--Asp(B7)--Asp--D--γMeLeu--Leu--D--Trp--].2Na [Example 4]	66%		
COc1ccccc1N1CCN(C(=O)C[C@@H]2NC(=O)[C@@H](CC(=O)O)NC(=O)[C@@H](Cc3c[nH]c4ccccc34)NC(=O)[C@H](CC(C)C)NC(=O)[C@@H](CC(C)(C)C)NC(=O)[C@H](CC(=O)O)NC2=O)CC1 [Example 1, cyclo[--D--Asp--Asp(B7)--Asp--D--γMeLeu--L--Leu--D--Trp--]] (cyclo(D(Piperazinyl(4-(2-MeOPh)))D[d(tBuAla)]L[dW][dD]))		0.18 nM	11 nM
CC(C)C[C@@H]1NC(=O)[C@@H](CC(C)(C)C)NC(=O)[C@H](CC(=O)O)NC(=O)[C@H](CC(=O)N2CCN(c3ccccc3)CC2)NC(=O)[C@@H](CC(=O)O)NC(=O)[C@@H](Cc2c[nH]c3ccccc23)NC1=O [Example 2, cyclo(--D--Asp--L--Asp(B1)--L--Asp--D--γMeLeu--L--Leu--D--Trp--)] (cyclo(D(Piperazinyl(4-Ph))D[d(tBuAla)]L[dW][dD]))		0.18 nM	28 nM
COc1ccccc1N1CCN(C(=O)C[C@@H]2NC(=O)[C@@H](CC(=O)O)NC(=O)[C@@H](Cc3cn(C(C)=O)c4ccccc34)NC(=O)[C@H](CC(C)C)NC(=O)[C@@H](CC(C)(C)C)NC(=O)[C@H](CC(=O)O)NC2=O)CC1 [Example 3, cyclo(--D--Asp--L--Asp(B7)--L--Asp--D--γMeLeu--L--Leu--D--Trp(Ac)--)] (cyclo(D(Piperazinyl(4-(2-MeOPh)))D[d(tBuAla)]L[dW](Ac)[dD]))		0.49 nM	14 nM
CC(C)C[C@@H]1NC(=O)[C@@H](c2cccs2)NC(=O)[C@H](CC(=O)O)NC(=O)[C@H](CC(=O)N2CCN(c3ccccc3)CC2)NC(=O)[C@@H](CC(=O)O)NC(=O)[C@@H](Cc2c[nH]c3ccccc23)NC1=O [Reference Example 1, cyclo(--D--Asp--L--Asp(B1)--L--Asp--D--Thg(2)--L--Leu--D--Trp--), reference compound] (cyclo(D(Piperazinyl(4-Ph))D[dGly(2-thienyl)]L[dW][dD]))		0.08 nM	120 nM

Reference: patent US5948754A, “Cyclic hexapeptides, their production and use” (Takeda Chemical Industries, Ltd., priority 1993, dated 1999)
